These results are taken from patent US10400263B2, “Tripeptide rhodamine compound” (Kingston Uninversity Higher Education Corporation, priority 2012, dated 2019).

Residues, ends and D or L forms follow the SMILES beside them. *: point of attachment. AMC = Cc1cc(=O)oc2cc(N*)ccc12; Boc = CC(C)(C)OC(=O)*

The test system of series [1] is MRSA and MSSA. Particulars: post-culture (10^6-10^8 bacteria); cited from earlier work.
Series [2] relates to MRSA, MSSA, S. epidermidis and E. coli. Put plainly: Coumarin staphylocoagulase fluorescence assay, all four bacterial species. Particulars: 500 μM coumarin, FIG. 10. It is filed as cell-based. The method, then: (§1) As described for the LGX system, clinical isolates of Methicillin Resistant Staphylococcus Aureus (MRSA), Methicillin Sensitive Staphylococcus Aureus (MSSA), Staphylococcus Epidermidis and Eschericia coli were cultured on nutrient agar prior to being grown overnight in nutrient broth under shaking conditions at 37° C. To determine the effects of varying bacterial concentrations with respect to bacterial strains and N-t-BOC-val-pro-arg-7-amido-4-methylcoumarin concentrations on staphylocoagulase activity, a direct comparison between the LGX system and the existing use of N-t-BOC-val-pro-arg-7-amido-4-methylcoumarin as a means of detecting staphylocoagulase was necessary (Ford et al, 1999).
(§2) 100 μM and 500 μM solutions of coumarin solution were prepared in 1×PBS with the addition of 0.05 M Tris Buffer and 0.1 M NaCl to maintain a pH of 8.5 using N-t-BOC-val-pro-arg-7-amido-4-methylcoumarin dissolved in MeOH. Furthermore, 100 μM and 500 μM of human prothrombin was added to the solution. 90 μl of […] of N-t-BOC-val-pro-arg-7-amido-4-methylcoumarin solution was added to varying concentrations of bacteria (10^6, 10^5, 10^4, 10^3, 10^2 and 10^0, respectively) in a microliter plate and staphylocoagulase activity determined by fluorescence spectrophotometry (Excitation of 355 nm, Emmission of 460 nm) at 15 minute intervals over a 6 hour time period. […]

For series [3] the test system is unchanged. Put plainly: Coumarin assay, absorbance at 385 nm, all bacterial types. It counts as cell-based. The note with it: 100 μM coumarin, FIG. 15. The method, then: To compare the efficacy of this staphylocoagulase assay with current, well established “gold standard” methods of coagulase detection such as a coumarin assay, coagulase test and latex agglutination test, bacterial isolates were prepared in suspension as above and clinical isolates of each respective strain was cultured overnight on nutrient agar. 90 μl of bacterial suspension was added to a solution consisting of 100 μM solutions of N-t-BOC-val-pro-arg-7-amido-4-methylcoumarin prepared in 1×PBS with the addition of 0.05 M Tris Buffer and 0.1 M NaCl to maintain a pH of 8.5. Staphylocoagulase activity was determined by measuring the absorbance at 385 nm at 15 minute intervals over a 6 hour time period. It should be noted that a concentration of 795 μM of the coumarin dye is usually required post-culture (10^6-10^8 bacteria) in order to observe a significant chromogenic response.

The subject of the next series is MSSA. The experiment in a line: Coumarin staphylocoagulase fluorescence assay, MSSA. It is filed as cell-based, Staphylococcus aureus. Particulars: 500 μM coumarin; MSSA 10^6; FIG. 10. The procedure:
as §1, §2

Series [4] deals with MRSA and MSSA. Put plainly: Coumarin staphylocoagulase assay, MRSA and MSSA. It counts as cell-based, Staphylococcus aureus. Particulars: 100 μM coumarin; MRSA and MSSA 10^6 and 10^5; FIG. 11. The procedure:
as §1, §2

Another series has as its system bacterial viability. The experiment in a line: Effect of methanol on bacterial viability (colony count). It is filed as cell-based. The note with it: 2 hours incubation, all bacteria concentrations (10^2-10^6), plated on nutrient agar overnight. The procedure: Tests were also run to validate that the methanol had no adverse effects on the growth of a number of bacterial strains up to a ˜5% methanol solution. Varying concentrations of methanol (0.25%, 0.5%, 1%, 2.5 5, 4% and 5%) were incubated with each bacterial species also at varying concentrations (10^2-10^6) for 2 hours prior to plating on nutrient agar to assess the effects of the solvent on bacterial viability.

Regarding `Cc1cc(=O)oc2cc(NC(=O)[C@H](CCCNC(=N)N)NC(=O)[C@@H]3CCCN3C(=O)[C@@H](NC(=O)OC(C)(C)C)C(C)C)ccc12` [N-t-BOC-val-pro-arg-7-amido-4-methylcoumarin] (Boc-Val-Pro-Arg-{AMC}), in the series on MRSA and MSSA [1], the “concentration usually required to observe a significant chromogenic response” value is 795 µM. The “discrimination between bacterial species by fluorescence” value in series [2] (all bacterial species 10^6) was “little discrimination between the fluorescence of all samples”. Also, in series [2] (high and low concentrations of MRSA, MSSA, S. epidermidis and E. coli), the “fluorescence over the 6 hour time period” value is reported as “no increase in fluorescence was observed”. Further, the “absorbance over the 6 hour time period” value is recorded as “no increase or variance between bacterial strains” in series [3] (10^5, 10^4, 10^3 and 10^2); “little increase over the 6 hour time period” in series [3] (10^6 of all bacterial types). Moreover, the fluorescence entry with MSSA is “a slight increase was observed”. Further, in the series with MRSA and MSSA [4], the “discrimination between bacterial samples by fluorescence” value was “no discrimination between bacterial samples”.
Consider `CO` [methanol], for which the “methanol concentration up to which bacterial viability was not compromised” value in the series with bacterial viability is on record as “up to 4%”.
